According to patent US8735375B2, “Therapeutic compositions” (Leo Laboratories Limited, priority 2005, dated 2014):

Assays:
Type in all cases: physicochemical
[1] = Preliminary stability of I3A in fractionated coconut oil
Method: Approximately 10 mg of […] was accurately weighed into a 28 ml glass vial and added to approximately 200 mg of benzyl alcohol (exact weight noted), which had previously been filtered through a 0.22 μm MILLEX-GV filter. This mixture was periodically vortexed for approximately 2 h until the […] had dissolved in the benzyl alcohol. […] Aliquots of each formulation (placebo or active) were dispensed into 2 ml screw cap amber glass vials (borosilicate glass), sealed and stored at two storage conditions namely 2-8° C. and 25±2° C. […]

[2] = Stability of I3A 'b' in isopropanol gel (pH 6.5); conditions: 0.02% (w/w) I3A 'b' in isopropanol gel pH 6.5; 2-8° C., RTP and 40° C.
Method: The stability of I3A ‘b’ in an isopropanol gel preparation (pH 6.5) was investigated. The protocol was as follows:
The Carbopol® was dispersed in the water and glycerin and dissolved by heating to 40° C. in a water bath. The propyl alcohol was then added to this solution. The cyclomethicone was dissolved in the isopropyl alcohol and this second solution was mixed well with the Carbopol® solution, and then water was added, with stirring, to 100%. The pH of the gel was brought to 6.5 with the dropwise addition of ethanolamine. The isopropanol gel was stored at 2-8° C. until use.
To investigate the stability of I3A ‘b’ in isopropanol gel (pH 6.5), a 0.02% (w/w) I3A ‘b’/Visopropanol gel formulation was prepared and divided into three samples for storage at 2-8° C., RTP and 40° C. At regular time points the samples were analysed in duplicate for the stability of I3A ‘b’ in terms of the formation of isoform ‘a’, with the results given in FIG. 2.

[3] = Stability study of I3A in solvents/excipients at room temperature (HPLC ratio of isoform 'b' to 'a' and 'c')
Method: A stability study of I3A in the following solvent/excipients/excipient combinations was performed over 14 days (except where otherwise stated) at room temperature:
A 0.5 mg/ml stock solution of I3A in acetonitrile was prepared. Aliquots of 1.0 ml were transferred to individual glass sample vials by a burette; the solutions were dried by air jet and then 1.0 g of the respective solvent/excipient/excipient combination was added to the vials. On Day 0, Day 5 and Day 14, aliquots of the stability samples were removed for HPLC analysis using the chromatographic conditions described under “Stability in DMSO”, below. Stability was expressed as the ratio of peak ‘b’ to peak ‘a’ (and peak ‘c’ if present), with a high ratio indicating stability in a particular excipient.
The chromatographic conditions employed for the excipients stability study were as follows:
It is assumed that for an excipient in which I3A is not stable, other like excipients will not be suitable.

[4] = Dilution of I3A with normal saline (isoform conversion)
Text: Oils may also be used in the present invention. The use of an emulsion based intralesional formulation has been reported for the treatment of psoriasis (Ho et al., 1990). Prior to administration, a vehicle, such as polyoxyethylated castor oil, is normally diluted with saline to form the emulsion. […] This conversion may be minimised if the administration time of the formulation is short.

[5] = Stability of I3A isoforms in the assay solvent systems over 72 h
Method: The stability of […] isoforms 'a', 'b' and 'c' in the three sample systems over 72 h (equivalent to the maximum possible length of time the samples might be held in the autosampler during a long HPLC analytical run) was confirmed as follows. Standards of the three isoforms of […] The standards were then each divided into three equal volumes and placed at 2-8° C., room temperature and 40° C. for 72 h and were then again analysed by HPLC.

[6] = Preliminary stability of I3A in receiver fluid 20% v/v ethanol/citrate buffer (pH 3.0); conditions: 37° C., after 18 h
Method: The receiver fluid employed to try and maintain sink conditions was 20% v/v ethanol/citrate buffer (pH 3.0) and this was incorporated into the Franz cell and stirred constantly with a magnetic stirrer. Preliminary stability studies were conducted on I3A in 20% v/v ethanol/citrate buffer (pH 3.0) at 37° C. over ca. 18 h. […] For the purpose of the Franz cell study this was considered acceptable.

[7] = I3A in Mineral oil, room temperature, 14 days
[8] = Acetonitrile/Citrate buffer (pH 3), 72 h 2-8° C.
[9] = Acetonitrile/Citrate buffer (pH 3), 72 h 40° C.
[10] = Acetonitrile/Citrate buffer (pH 3), 72 h RTP
[11] = Acetonitrile/Citrate buffer (pH 3), Time 0 h
[12] = Acetonitrile/Sodium acetate buffer (pH 4.5), 72 h 2-8° C.
[13] = Acetonitrile/Sodium acetate buffer (pH 4.5), 72 h 40° C.
[14] = Acetonitrile/Sodium acetate buffer (pH 4.5), 72 h RTP
[15] = Acetonitrile/Sodium acetate buffer (pH 4.5), Time 0 h

In the case of `C/C=C(/C)C(=O)O[C@H]1C(C)=C[C@]23C(=O)[C@H](C=C(CO)[C@@H](O)[C@]12O)[C@H]1[C@@H](C[C@H]3C)C1(C)C` [Formulation I3A, ingenol-3-angelate], the “% I3A ‘a’ (isoform ‘a’ as a percentage of isoform ‘a’ and I3A ‘b’)” value ([1]; 0.1% w/w I3A in fractionated coconut oil/2% benzyl alcohol, Time 0) is reported as 1.90%, the “% I3A ‘a’” value ([1]; Fresh sample I3A in Acetonitrile at time 43 days) is reported as 2.14% and the “% I3A ‘a’ (isoform ‘a’ as a percentage of isoform ‘a’ and I3A ‘b’)” value ([1]; Fresh sample I3A in Acetonitrile at time zero) is reported as 2.50%. The “% I3A ‘a’” value ([1]; I3A in fractionated coconut oil formulation, Time 5 days (2-8° C.)) was 1.86%, the “% I3A ‘a’” value ([1]; I3A in fractionated coconut oil formulation, Time 5 days (25° C.)) was 1.97% and the “% I3A ‘a’” value ([1]; I3A in fractionated coconut oil formulation, Time 20 days (2-8° C.)) was 1.94%. For the same compound, the “% I3A ‘a’” value ([1]; I3A in fractionated coconut oil formulation, Time 20 days (25° C.)) was 1.93%, the “% I3A ‘a’” value ([1]; I3A in fractionated coconut oil formulation, Time 28 days (2-8° C.)) was 1.93% and the “% I3A ‘a’” value ([1]; I3A in fractionated coconut oil formulation, Time 28 days (25° C.)) was 1.94%. For the same compound, the “% I3A ‘a’” value ([1]; I3A in fractionated coconut oil formulation, Time 43 days (2-8° C.)) was 1.95%, the “% I3A ‘a’” value ([1]; I3A in fractionated coconut oil formulation, Time 43 days (25° C.)) was 1.91% and the “change in percentage of isoform ‘a’ during storage” value ([1]; I3A in fractionated coconut oil, 2-8 and 25° C., 43 days) was “no increase in the percentage of isoform ‘a’”. The “stability in terms of the formation of isoform 'a'” value [2] was “rearranges to isoform ‘a’ and subsequently isoform ‘c’”, the “Stable?” value ([3]; I3A in 2-Hydroxypropyl-β-cyclodextrin (Cavasol)/PO4 pH 4.5, room temperature, 14 days) was “√” and the “Stable?” value ([3]; I3A in Acetone, room temperature, 14 days) was “stable and √”. For the same compound, the “Stable?” value ([3]; I3A in Acetonitrile, room temperature, 14 days) was “stable and √”, the “Stable?” value ([3]; I3A in Ammonium buffer pH 4.5, room temperature) was “stable and √” and the Comments ([3]; I3A in Captisol/H2O, room temperature, 7 days study (comment continues: present)) was “Isoforms ‘a’ and ‘c’”. The Comments ([3]; I3A in Cavasol/H2O, room temperature, 14 days) was “Large peak for isoform ‘c’”, the Comments ([3]; I3A in Cavasol/PO4 pH 4.5, room temperature, 14 days) was “Some precipitation of I3A” and the “Stable?” value ([3]; I3A in DMSO, room temperature, 10 days study) was “stable and √”. The Comments ([3]; I3A in Methanol, room temperature, 14 days) was “Isoform ‘a’ forms”, the Comments ([3]; I3A in Methanol/water (70/30), room temperature, 14 days) was “Isoform ‘a’ then ‘c’ form” and the “Stable?” value ([3]; I3A in Miglyol 810, room temperature, 14 days) was “√”. For the same compound, the Comments [3, 7] was “Precipitation of I3A”, the “Stable?” value [3, 7] was “√” and the Comments ([3]; I3A in Oleic acid, room temperature, 14 days (isoform 'a' present, shoulder on 'b', 'c' forming)) was “chromatogram. isoform ‘a’”. The “Stable?” value ([3]; I3A in Phosphate buffer pH 4.5, room temperature, 14 days) was “stable and √”, the Comments ([3]; I3A in Phosphate buffer pH 5.5, room temperature, 14 days) was “Isoform ‘a’ forms” and the Comments ([3]; I3A in Phosphate buffer pH 6.5, room temperature, 14 days) was “Isoform ‘a’ then ‘c’ form”. The “Stable?” value ([3]; I3A in Polyethylene glycol, room temperature, 14 days) was “√”, the Comments ([3]; I3A in Propylene glycol, room temperature, 14 days (comment continues: isoforms)) was “Formation of ‘a’ and ‘c’” and the Comments ([3]; I3A in Sodium hyaluronate/H2O, room temperature, 2 days study) was “Isoform ‘a’ present”. For the same compound, the “Stable?” value ([3]; I3A in Sodium hyaluronate/PO4 pH 4.5, room temperature, 2 days study) was “√”, the “Stable?” value ([3]; I3A in Tween 80/Span 80/H2O, room temperature, 14 days) was “√” and the “Stable?” value ([3]; I3A in Tween 80/Span 80/PO4 pH 4.5, room temperature, 14 days) was “√”. The Comments ([3]; I3A in Water, room temperature, 14 days) was “Isoform ‘a’ then ‘c’ form”, the “Stable?” value ([3]; I3A in β-cyclodextrin sulphobutyl ether (Captisol)/PO4 pH 4.5, room temperature, 7 days study) was “√” and the “conversion of isoform 'b' to 'a'” value [4] was “increases the conversion of isoform ‘b’ to ‘a’”. The “% ‘a’” value ([5]; Acetonitrile, 72 h 2-8° C.) was 3.94%, the “% ‘b’” value ([5]; Acetonitrile, 72 h 2-8° C.) was 95.45% and the “% ‘c’” value ([5]; Acetonitrile, 72 h 2-8° C.) was 0%. For the same compound, the “% ‘a’” value ([5]; Acetonitrile, 72 h 40° C.) was 15.52%, the “% ‘b’” value ([5]; Acetonitrile, 72 h 40° C.) was 83.35% and the “% ‘c’” value ([5]; Acetonitrile, 72 h 40° C.) was 0%. For the same compound, the “% ‘a’” value ([5]; Acetonitrile, 72 h RTP) was 5.83%, the “% ‘b’” value ([5]; Acetonitrile, 72 h RTP) was 93.51% and the “% ‘c’” value ([5]; Acetonitrile, 72 h RTP) was 0%. The “% ‘a’” value ([5]; Acetonitrile, Time 0 h) was 0.39%, the “% ‘b’” value ([5]; Acetonitrile, Time 0 h) was 99.27% and the “% ‘c’” value ([5]; Acetonitrile, Time 0 h) was 0%. For the same compound, the “% ‘a’” value [5, 8] was 0.18%, the “% ‘b’” value [5, 8] was 99.49% and the “% ‘c’” value [5, 8] was 0%. The “% ‘a’” value [5, 9] was 0.34%, the “% ‘b’” value [5, 9] was 99.63% and the “% ‘c’” value [5, 9] was 0%. The “% ‘a’” value [5, 10] was 0.13%, the “% ‘b’” value [5, 10] was 99.76% and the “% ‘c’” value [5, 10] was 0%. For the same compound, the “% ‘a’” value [5, 11] was 0.13%, the “% ‘b’” value [5, 11] was 99.64% and the “% ‘c’” value [5, 11] was 0%. For the same compound, the “% ‘a’” value [5, 12] was 0.63%, the “% ‘b’” value [5, 12] was 99.02% and the “% ‘c’” value [5, 12] was 0%. For the same compound, the “% ‘a’” value [5, 13] was 6.35%, the “% ‘b’” value [5, 13] was 93.13% and the “% ‘c’” value [5, 13] was 0%. For the same compound, the “% ‘a’” value [5, 14] was 1.16%, the “% ‘b’” value [5, 14] was 98.41% and the “% ‘c’” value [5, 14] was 0%. The “% ‘a’” value [5, 15] was 0.34%, the “% ‘b’” value [5, 15] was 98.88% and the “% ‘c’” value [5, 15] was 0.01%. The “percentage peak area increase in isoform ‘a’” value [6] was 0.26%.
